In PubChem BioAssay AID192 (DTP/NCI, 2004):
Values joined by “and” are separate entries in the source; they are usually repeats but may differ in a detail not shown here. Equal entries are not always repeated. Toxic doses and inconclusive results are not listed. How the source made its calls: active means survival T/C of 150% or more; inactive means T/C below 125% in these data.

Tested on: BDF1 mice, B16 melanoma ip, median survival T/C
Assay: NCI In Vivo Anticancer Drug Screen. Data for tumor model B16 Melanoma (intraperitoneal) in B6D2F1 (BDF1) mice
Conditions: endpoint: median survival time, higher = longer survival
Method: The antitumor activity of compounds was measured in mice bearing transplantable tumors. Survival or tumor size were measured and the results are expressed as the measurement made in the treated group (T) divided by the measurement made in the vehicle treated control group (C). The tumor model used in this assay is B16 Melanoma (intraperitoneal) in B6D2F1 (BDF1) mice

[1] = dose: 25.0 mg/kg/injection, schedule: Q01DX009 (ip), vehicle: saline with Tween-80
[2] = dose: 100.0 mg/kg/injection, schedule: Q01DX009 (ip), vehicle: saline with Tween-80
[3] = dose: 50.0 mg/kg/injection, schedule: Q01DX009 (ip), vehicle: Klucel (hydroxypropylcellulose) (HPC)
[4] = dose: 50.0 mg/kg/injection, schedule: Q01DX009 (ip), vehicle: gum acacia
[5] = dose: 100.0 mg/kg/injection, schedule: Q01DX009 (ip), vehicle: gum acacia
[6] = dose: 50.0 mg/kg/injection, schedule: Q01DX009 (ip), vehicle: saline with Tween-80

Measured: T/C

Cc1ccc(NC(=O)CCl)cc1C
inactive: dose: 6.25 mg/kg/injection, schedule: Q01DX009 (ip), vehicle: saline with Tween-80 102 % of control | dose: 12.5 mg/kg/injection, schedule: Q01DX009 (ip), vehicle: saline with Tween-80 100 % of control | [1] 95 % of control | [2] 95 % of control | dose: 200.0 mg/kg/injection, schedule: Q01DX009 (ip), vehicle: saline with Tween-80 95 % of control

O=C(Nc1cc(C(F)(F)F)ccc1Cl)c1cccc(C(=O)Nc2cc(C(F)(F)F)ccc2Cl)c1
inactive: dose: 12.5 mg/kg/injection, schedule: Q01DX009 (ip), vehicle: Klucel (hydroxypropylcellulose) (HPC) 101 % of control | dose: 25.0 mg/kg/injection, schedule: Q01DX009 (ip), vehicle: Klucel (hydroxypropylcellulose) (HPC) 101 % of control | [3] 101 % of control

O=C(Nc1cccc(C(F)(F)F)c1)c1ccc(Cl)c(Cl)c1
inactive: [4] 105 % of control | [5] 119 % of control | dose: 200.0 mg/kg/injection, schedule: Q01DX009 (ip), vehicle: gum acacia 113 % of control | dose: 400.0 mg/kg/injection, schedule: Q01DX009 (ip), vehicle: gum acacia 100 % of control

CCC(=O)O[C@H]1CC[C@H]2[C@@H]3[C@@H](C)CC4=CC(=O)CC[C@]4(C)[C@H]3CC[C@]12C
inactive: [1] 98 % of control | [6] 91 % of control | [2] 87 % of control and 89 % of control | dose: 100.0 mg/kg/injection, schedule: Q04DX003 (ip), vehicle: saline with Tween-80 100 % of control | dose: 200.0 mg/kg/injection, schedule: Q04DX003 (ip), vehicle: saline with Tween-80 100 % of control | dose: 400.0 mg/kg/injection, schedule: Q04DX003 (ip), vehicle: saline with Tween-80 86 % of control

CCOC12c3cc(OC)ccc3N(S(=O)(=O)c3ccc(C)cc3)CC1C2(Br)Br (configuration not stated)
inactive: [3] 103 % of control | dose: 100.0 mg/kg/injection, schedule: Q01DX009 (ip), vehicle: Klucel (hydroxypropylcellulose) (HPC) 93 % of control | dose: 200.0 mg/kg/injection, schedule: Q01DX009 (ip), vehicle: Klucel (hydroxypropylcellulose) (HPC) 89 % of control

Cc1ccc(C)c(NC(=O)Nc2ccccc2Cl)c1
inactive: dose: 25.0 mg/kg/injection, schedule: Q01DX009 (ip), vehicle: gum acacia 86 % of control | [4] 90 % of control | [5] 88 % of control | dose: 100.0 mg/kg/injection, schedule: Q04DX003 (ip), vehicle: gum acacia 90 % of control

COc1ccc(OC(=O)Nc2ccccc2Cl)cc1
inactive: dose: 100.0 mg/kg/injection, schedule: Q04DX003 (ip), vehicle: Klucel (hydroxypropylcellulose) (HPC) 106 % of control | dose: 200.0 mg/kg/injection, schedule: Q04DX003 (ip), vehicle: Klucel (hydroxypropylcellulose) (HPC) 103 % of control | dose: 400.0 mg/kg/injection, schedule: Q04DX003 (ip), vehicle: Klucel (hydroxypropylcellulose) (HPC) 103 % of control

COc1cc2oc(=O)ccc2cc1[C@@H]1OC(=O)C2(C)O[C@@H]12 (some centres not stated)
inactive: dose: 0.63 mg/kg/injection, schedule: Q01DX009 (ip), vehicle: distilled water + Tween-80 103 % of control | dose: 1.25 mg/kg/injection, schedule: Q01DX009 (ip), vehicle: distilled water + Tween-80 95 % of control | dose: 5.0 mg/kg/injection, schedule: Q01DX009 (ip), vehicle: distilled water + Tween-80 102 % of control | dose: 10.0 mg/kg/injection, schedule: Q01DX009 (ip), vehicle: distilled water + Tween-80 97 % of control

C[CH2][Sn]([CH2]C)([O]S(=O)(=O)CC12CCC(CC1=O)C2(C)C)[O]S(=O)(=O)CC12CCC(CC1=O)C2(C)C
inactive: dose: 1.56 mg/kg/injection, schedule: Q01DX009 (ip), vehicle: saline 100 % of control | dose: 3.12 mg/kg/injection, schedule: Q01DX009 (ip), vehicle: saline 108 % of control | dose: 6.25 mg/kg/injection, schedule: Q01DX009 (ip), vehicle: saline 115 % of control | dose: 12.5 mg/kg/injection, schedule: Q01DX009 (ip), vehicle: saline 100 % of control | dose: 25.0 mg/kg/injection, schedule: Q01DX009 (ip), vehicle: saline 96 % of control

CC(=O)NC(CC(C)C)C(=O)O (configuration not stated)
inactive: [1] 108 % of control | [6] 121 % of control | [2] 101 % of control

CC(=O)Nc1cc(N(CCOS(C)(=O)=O)CCOS(C)(=O)=O)ccc1N=O
inactive: dose: 75.0 micrograms/kg/injection, schedule: Q04DX003 (ip), vehicle: saline 111 % of control | dose: 100.0 micrograms/kg/injection, schedule: Q01DX009 (ip), vehicle: saline 121 % of control | dose: 150.0 micrograms/kg/injection, schedule: Q04DX003 (ip), vehicle: saline 110 % of control | dose: 300.0 micrograms/kg/injection, schedule: Q04DX003 (ip), vehicle: saline 109 % of control

CC1=C(/C=C/C(C)=N/NC(N)=O)C(C)(C)CCC1
inactive: dose: 50.0 mg/kg/injection, schedule: Q04DX003 (ip), vehicle: saline 112 % of control | dose: 100.0 mg/kg/injection, schedule: Q04DX003 (ip), vehicle: saline 95 % of control | dose: 200.0 mg/kg/injection, schedule: Q04DX003 (ip), vehicle: saline 102 % of control
